Literature values in patent publication US8957218B2, “2-oxo-1-imidazolidinyl imidazothiadiazole derivatives” (UCB Pharma S.A., priority 2011, dated 2015).

Tested on: epilepsy (seizure control)
Conditions: Gower A. J. et al., Eur. J. Pharmacol. (1992), 222, 193-203

CC[C@H](C(N)=O)N1CCCC1=O [(R)-α-ethyl-2-oxo-1-pyrrolidine acetamide]
activity in the treatment of epilepsy (seizure control): completely lacks activity
